Data from the supplement of paper PMC4862054.

test system: CAL-51; assay: normalised response (% of control), CellTiter-Glo; higher = more viable cells (100 = DMSO, 0 = benzethonium chloride kill control); settings: incubation time: 72 h
Method: (§1)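 DSRT, 72 h incubation, CellTox Green / CellTiter-Glo readout. Signal is normalised to DMSO and benzethonium chloride controls. Value is the normalised response at dose 3.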

| SMILES | normalised response [%] |
| --- | --- |
| CC[C@H](C)C(=O)O[C@H]1C[C@H](O)C=C2C=C[C@H](C)[C@H](CC[C@@H](O)C[C@@H](O)CC(=O)O)[C@H]21 [Pravastatin] (100 nM) | 63.4 |
| C[C@H]1C[C@@H]2[C@H]([C@@H](O)C[C@@]3(C)[C@H]2CC[C@]3(O)C(=O)CO)[C@@]2(C)C=CC(=O)C=C12 [Methylprednisolone] (100 nM) | 86.4 |

test system: Hs578T; assay: as above; settings: incubation time: 72 h
Method: as §1

| SMILES | normalised response [%] |
| --- | --- |
| CCc1cncnc1N1CCN(Cc2nc3ccc(C(F)(F)F)cc3[nH]2)CC1 (100 nM) | 109 |
| COc1cc2nccc(Oc3ccc(NC(=O)Nc4cc(C)on4)c(Cl)c3)c2cc1OC [Tivozanib] (100 nM) | 93.7 |
| O=C(O)C(=O)O.[NH-][C@@H]1CCCC[C@H]1[NH-].[Pt+2] [Oxaliplatin] (100 nM) | 97.9 |
| CC1=C(/C=C/C(C)=C/C=C/C(C)=C/C(=O)O)C(C)(C)CCC1 [Tretinoin] (100 nM) | 98.5 |
| Oc1ncc(N(CCCl)CCCl)c(O)n1 [Uracil mustard] (100 nM) | 102 |
| COc1cc2c(NC3CCN(C(C)C)CC3)nc(C3CCCCC3)nc2cc1OCCCN1CCCC1 [UNC0638] (100 nM) | 97.4 |
| COc1cc([C@@H]2c3cc4c(cc3[C@@H](O[C@@H]3O[C@@H]5CO[C@@H](c6cccs6)O[C@H]5[C@H](O)[C@H]3O)[C@H]3COC(=O)[C@H]23)OCO4)cc(OC)c1O [Teniposide] (100 nM) | 90 |
| CC[C@H](C)C(=O)O[C@H]1C[C@H](O)C=C2C=C[C@H](C)[C@H](CC[C@@H](O)C[C@@H](O)CC(=O)O)[C@H]21 [Pravastatin] (100 nM) | 93.2 |
| C[C@H]1C[C@@H]2[C@H]([C@@H](O)C[C@@]3(C)[C@H]2CC[C@]3(O)C(=O)CO)[C@@]2(C)C=CC(=O)C=C12 [Methylprednisolone] (100 nM) | 107 |

test system: CAL-148; assay: as above; settings: incubation time: 72 h
Method: as §1

| SMILES | normalised response [%] |
| --- | --- |
| CCc1cncnc1N1CCN(Cc2nc3ccc(C(F)(F)F)cc3[nH]2)CC1 (100 nM) | 116 |
| COc1cc2nccc(Oc3ccc(NC(=O)Nc4cc(C)on4)c(Cl)c3)c2cc1OC [Tivozanib] (100 nM) | 88.5 |
| O=C(O)C(=O)O.[NH-][C@@H]1CCCC[C@H]1[NH-].[Pt+2] [Oxaliplatin] (100 nM) | 85.6 |
| CC1=C(/C=C/C(C)=C/C=C/C(C)=C/C(=O)O)C(C)(C)CCC1 [Tretinoin] (100 nM) | 91.9 |
| Oc1ncc(N(CCCl)CCCl)c(O)n1 [Uracil mustard] (100 nM) | 100 |
| COc1cc2c(NC3CCN(C(C)C)CC3)nc(C3CCCCC3)nc2cc1OCCCN1CCCC1 [UNC0638] (100 nM) | 88 |
| COc1cc([C@@H]2c3cc4c(cc3[C@@H](O[C@@H]3O[C@@H]5CO[C@@H](c6cccs6)O[C@H]5[C@H](O)[C@H]3O)[C@H]3COC(=O)[C@H]23)OCO4)cc(OC)c1O [Teniposide] (100 nM) | 74.5 |
| CC[C@H](C)C(=O)O[C@H]1C[C@H](O)C=C2C=C[C@H](C)[C@H](CC[C@@H](O)C[C@@H](O)CC(=O)O)[C@H]21 [Pravastatin] (100 nM) | 86.3 |
| C[C@H]1C[C@@H]2[C@H]([C@@H](O)C[C@@]3(C)[C@H]2CC[C@]3(O)C(=O)CO)[C@@]2(C)C=CC(=O)C=C12 [Methylprednisolone] (100 nM) | 109 |

test system: MDA-MB-231; assay: as above; settings: incubation time: 72 h
Method: as §1

| SMILES | normalised response [%] |
| --- | --- |
| CCc1cncnc1N1CCN(Cc2nc3ccc(C(F)(F)F)cc3[nH]2)CC1 (100 nM) | 110 |
| COc1cc2nccc(Oc3ccc(NC(=O)Nc4cc(C)on4)c(Cl)c3)c2cc1OC [Tivozanib] (100 nM) | 96.2 |
| O=C(O)C(=O)O.[NH-][C@@H]1CCCC[C@H]1[NH-].[Pt+2] [Oxaliplatin] (100 nM) | 97.2 |
| CC1=C(/C=C/C(C)=C/C=C/C(C)=C/C(=O)O)C(C)(C)CCC1 [Tretinoin] (100 nM) | 102 |
| Oc1ncc(N(CCCl)CCCl)c(O)n1 [Uracil mustard] (100 nM) | 100 |
| COc1cc2c(NC3CCN(C(C)C)CC3)nc(C3CCCCC3)nc2cc1OCCCN1CCCC1 [UNC0638] (100 nM) | 92.2 |
| COc1cc([C@@H]2c3cc4c(cc3[C@@H](O[C@@H]3O[C@@H]5CO[C@@H](c6cccs6)O[C@H]5[C@H](O)[C@H]3O)[C@H]3COC(=O)[C@H]23)OCO4)cc(OC)c1O [Teniposide] (100 nM) | 94.3 |
| CC[C@H](C)C(=O)O[C@H]1C[C@H](O)C=C2C=C[C@H](C)[C@H](CC[C@@H](O)C[C@@H](O)CC(=O)O)[C@H]21 [Pravastatin] (100 nM) | 97.8 |
| C[C@H]1C[C@@H]2[C@H]([C@@H](O)C[C@@]3(C)[C@H]2CC[C@]3(O)C(=O)CO)[C@@]2(C)C=CC(=O)C=C12 [Methylprednisolone] (100 nM) | 156 |

test system: MDA-MB-468; assay: as above; settings: incubation time: 72 h
Method: as §1

| SMILES | normalised response [%] |
| --- | --- |
| CCc1cncnc1N1CCN(Cc2nc3ccc(C(F)(F)F)cc3[nH]2)CC1 (100 nM) | 106 |
| COc1cc2nccc(Oc3ccc(NC(=O)Nc4cc(C)on4)c(Cl)c3)c2cc1OC [Tivozanib] (100 nM) | 93.6 |
| O=C(O)C(=O)O.[NH-][C@@H]1CCCC[C@H]1[NH-].[Pt+2] [Oxaliplatin] (100 nM) | 89.3 |
| CC1=C(/C=C/C(C)=C/C=C/C(C)=C/C(=O)O)C(C)(C)CCC1 [Tretinoin] (100 nM) | 92 |
| Oc1ncc(N(CCCl)CCCl)c(O)n1 [Uracil mustard] (100 nM) | 94.6 |
| COc1cc2c(NC3CCN(C(C)C)CC3)nc(C3CCCCC3)nc2cc1OCCCN1CCCC1 [UNC0638] (100 nM) | 83.8 |
| COc1cc([C@@H]2c3cc4c(cc3[C@@H](O[C@@H]3O[C@@H]5CO[C@@H](c6cccs6)O[C@H]5[C@H](O)[C@H]3O)[C@H]3COC(=O)[C@H]23)OCO4)cc(OC)c1O [Teniposide] (100 nM) | 79.3 |
| CC[C@H](C)C(=O)O[C@H]1C[C@H](O)C=C2C=C[C@H](C)[C@H](CC[C@@H](O)C[C@@H](O)CC(=O)O)[C@H]21 [Pravastatin] (100 nM) | 97.7 |
| C[C@H]1C[C@@H]2[C@H]([C@@H](O)C[C@@]3(C)[C@H]2CC[C@]3(O)C(=O)CO)[C@@]2(C)C=CC(=O)C=C12 [Methylprednisolone] (100 nM) | 111 |

test system: HCC1937; assay: as above; settings: incubation time: 72 h
Method: as §1

| SMILES | normalised response [%] |
| --- | --- |
| CCc1cncnc1N1CCN(Cc2nc3ccc(C(F)(F)F)cc3[nH]2)CC1 (100 nM) | 98.6 |
| COc1cc2nccc(Oc3ccc(NC(=O)Nc4cc(C)on4)c(Cl)c3)c2cc1OC [Tivozanib] (100 nM) | 95.1 |
